Measured values reported in US10087191B2, “Piperidine derivative and preparation method and pharmaceutical use thereof” (Jiangsu Hengrui Medicine Co., Ltd., priority 2015, dated 2018).

Columns and labels:
estrogen receptor (ER) = estrogen receptor (ER) (Homo sapiens (Human), UniProt P03372); test: Inhibition of the binding of estrogen (E) to estrogen receptor (ER), MCF-7/ERE-luciferase reporter cells; type: cell-based; conditions: MCF-7/ERE-luciferase cells, 0.1 nM estradiol, 24 hours; read-out: IC50 value of inhibition effect on the binding of E to ER
MCF7 cells = test: Inhibition of the proliferation of MCF7 cells (Cell Titer-Glo); type: cell-based; conditions: Homo sapiens, MCF-7 cells, 72 hours, read-out: IC50 value of inhibition effect on the proliferation of MCF7 cells
In short: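 Viability by Cell Titer-Glo luminescence; IC50 from signal versus log concentration.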

ERα = ERα (Homo sapiens (Human), UniProt P03372); test: Degradation effect on ERα in MCF-7 cells (ERα Duoset ELISA); type: cell-based; conditions: MCF-7 cells; read-out: IC50 value of the degradation effect on ERα
Procedure: In order to determine the degradation effect on ER induced by the compounds of the present invention, the following method was used to determine the degradation effect of the compounds of the present invention on ER.
MCF-7 cell line (TChu 74, Cell Bank of Chinese Academy of Sciences typical culture preservation Committee)
ERα Duoset Kit (#DYC5715E, R&D System)
MCF-7 cells were incubated in DMEM/F-12 medium containing 10% FBS.
On the first day of the experiment, MCF-7 cells were resuspended in DMEM/F-12 medium containing 10% FBS treated by activated carbon, then inoculated into a 48-well plate with a density of 50,000 cells/well and incubated for 22-24 hours.
On the second day of the experiment, the test compound was diluted with medium and added to a 48-well plate. The ERα-capture antibody was diluted to 1 μg/ml with PBS, and added to a 96-well plate at 100 μl/well. The plate was sealed and coated overnight at room temperature.
On the third day of the experiment, the coated 96-well plate was washed twice with PBS, added with a sealing solution (1% BSA in PBS) at 110 μl/well and sealed for 1 hour at room temperature. The 48-well plate was washed once with PBS, and the residual liquid was removed. Then, 60 μl of lysis (6 M urea, 1 mM EDTA, 0.5% Triton X-100, 1 mM PMSF, Protease Inhibitor cocktail) was added to each well. After lysis on ice for 15 minutes, the diluent (1 mM EDTA, 0.5% TritonX-100 dissolved in PBS) was added. The cell-diluted lysate was transferred to a 96-well plate at 100 μl/well, then the plate was incubated at room temperature for 2 hours. The diluted primary antibody was added after the plate was washed 4 times with a washing liquid (PBST). After incubation for 1 hour, the 96-well plate was washed 4 times, and the second antibody was added, then the plate was incubated for 30 minutes. After the plate was washed with a washing liquid, TMB chromogenic solution was added and incubated for 15 minutes. The reaction was stopped by the addition of 1 M H2SO4, then the light absorption at 450 nm was read.

[1] = Pharmacokinetics assay in BALB/C nude mice after intragastrical administration; type: in vivo; conditions: female, mouse, plasma, po, 3 mg/kg; for AUC: read-out: Area Under Curve AUC; for CL/F: read-out: Clearance CL/F (converted); for half-life: read-out: Half-Life t½ (converted); for MRT: read-out: Mean Residence Time MRT; for Cmax: read-out: Plasma Conc. Cmax
Procedure: BALB/C nude mice were used as test animals. The drug concentration in plasma at different time points was determined by LC/MS/MS after intragastrical administration of the compounds of Examples 10, 14, 20, 21, 57, 68, 71, 73, 74, 76 and 89 to BALB/C nude mice. The pharmacokinetic behavior of the compounds of the present invention was studied and evaluated in BALB/C nude mice.
Ninety-nine (99) female BALB/C nude mice were equally divided into 11 groups, which were purchased from SINO-BRITSH SIPPR/BK LAB. ANIMAL LTD., CO, with Certificate No.: SCXK (Shanghai) 2008-0016.
The appropriate amount of each test compound was weighed, and successively added with 9% PEG400+0.5% tween 80+0.5% PVP+90% aqueous solution of 0.5% CMC.
After an overnight fast, 99 female BALB/C nude mice were equally divided into 11 groups, and administered the test compounds intragastrically at an administration volume of 0.2 mL/10 g.
Blood (0.1 mL) was sampled (3 mice at each time point) at 0.5, 1.0, 2.0, 4.0, 6.0, 8.0, 11.0 and 24.0 hours after administration. The samples were stored in heparinized test tubes, and centrifuged for 10 minutes at 3,500 rpm to separate the blood plasma. The plasma samples were stored at −20° C. The plasma concentration of the test compounds in BALB/C nude mice after intragastrical administration was determined by LC/MS/MS.
Pharmacokinetic parameters of the compounds of Examples 10, 14, 20, 21, 57, 68, 71, 73, 74, 76 and 89 of the present invention are shown below.

Sequence of estrogen receptor (ER) (P03372 whole entry): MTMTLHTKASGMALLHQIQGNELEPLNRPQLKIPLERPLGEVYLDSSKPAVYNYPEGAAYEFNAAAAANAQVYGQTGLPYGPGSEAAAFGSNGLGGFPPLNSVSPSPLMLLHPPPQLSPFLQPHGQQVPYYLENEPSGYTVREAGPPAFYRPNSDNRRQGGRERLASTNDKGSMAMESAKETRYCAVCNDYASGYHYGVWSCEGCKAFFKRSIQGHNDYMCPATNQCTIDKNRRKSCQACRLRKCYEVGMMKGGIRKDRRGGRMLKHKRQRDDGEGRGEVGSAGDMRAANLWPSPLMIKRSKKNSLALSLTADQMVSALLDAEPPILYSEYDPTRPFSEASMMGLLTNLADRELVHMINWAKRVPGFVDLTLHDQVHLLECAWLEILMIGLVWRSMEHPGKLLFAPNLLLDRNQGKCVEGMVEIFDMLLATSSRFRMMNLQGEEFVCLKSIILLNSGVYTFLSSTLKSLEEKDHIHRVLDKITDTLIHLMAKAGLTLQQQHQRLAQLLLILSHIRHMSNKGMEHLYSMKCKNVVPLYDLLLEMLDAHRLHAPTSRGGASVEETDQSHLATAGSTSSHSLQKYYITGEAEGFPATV
Sequence of ERα (P03372 whole entry): as above

SMILES	IC50 (estrogen receptor (ER)) [nM]	IC50 (MCF7 cells) [nM]	DC50 (ERα) [nM]	AUC [1] [ng·h/mL]	CL/F [1] [mL/min/kg]	half-life [1] [h]	MRT [1] [h]	Cmax [1] [ng/mL]
C[C@@H]1Cc2c(oc3cccc(F)c23)[C@@H](c2c(F)cc(/C=C/C(=O)O)cc2F)N1CC(C)(C)F [Example 74, (E)-3-(3,5-difluoro-4-((1R,3R)-5-fluoro-2-(2-fluoro-2-methylpropyl)-3-methyl-1,2,3,4-tetrahydrobenzofuro[2,3-c]pyridin-1-yl)phenyl)acrylic acid]	0.21	0.09	1.35	5850	142	3.16	2.41	2530
C[C@@H]1Cc2cc3c(cc2[C@@H](c2c(F)cc(/C=C/C(=O)O)cc2F)N1CC(C)(C)F)OCO3 [Example 71, (E)-3-(3,5-difluoro-4-((5S,7R)-6-(2-fluoro-2-methylpropyl)-7-methyl-5,6,7,8-tetrahydro-[1,3]dioxolo[4,5-g]isoquinolin-5-yl)phenyl)acrylic acid]	0.74	0.12	0.06	8810	158	1.59	2.62	4130
CCn1cc(-c2ccc3oc4c(c3c2)C[C@@H](C)N(CC(C)(C)F)[C@@H]4c2c(F)cc(/C=C/C(=O)O)cc2F)cn1 [Example 97, (E)-3-(4-((1R,3R)-6-(1-ethyl-1H-pyrazol-4-yl)-2-(2-fluoro-2-methylpropyl)-3-methyl-1,2,3,4-tetrahydrobenzofuro[2,3-c]pyridin-1-yl)-3,5-difluorophenyl)acrylic acid]	0.24	0.2	6.11					
C[C@@H]1Cc2c(oc3ccccc23)[C@@H](c2c(F)cc(/C=C/C(=O)O)cc2F)N1CC(C)(C)F [Example 68, (E)-3-(3,5-difluoro-4-((1R,3R)-2-(2-fluoro-2-methylpropyl)-3-methyl-1,2,3,4-tetrahydrobenzofuro[2,3-c]pyridin-1-yl)phenyl)acrylic acid]	0.31	0.04	0.11	13200	105	2.32	3.7	3420
CC1Cc2cc3c(cc2C(c2c(F)cc(/C=C/C(=O)O)cc2F)N1CC(C)(C)F)OCCO3 [Example 2, (E)-3-(3,5-difluoro-4-((6S,8R/6R,8S)-7-(2-fluoro-2-methylpropyl)-8-methyl-2,3,6,7,8,9-hexahydro-[1,4]dioxino[2,3-g]isoquinolin-6-yl)phenyl)acrylic acid]	3.2	0.49	0.95					
CC1Cc2cc3ocnc3cc2C(c2c(F)cc(/C=C/C(=O)O)cc2F)N1CC(C)(C)F [Example 81, (E)-3-(3,5-difluoro-4-((5S,7R/5R,7S)-6-(2-fluoro-2-methylpropyl)-7-methyl-5,6,7,8-tetrahydrooxazolo[5,4-g]isoquinolin-5-yl)phenyl)acrylic acid]	4.06	3.4	1.62					
CC1Cc2cc(-c3ccc(N4CCOCC4)cc3)ccc2C(c2c(F)cc(/C=C/C(=O)O)cc2F)N1CC(C)(C)F [Example 60, (E)-3-(3,5-difluoro-4-((1S,3R/1R,3S)-2-(2-fluoro-2-methylpropyl)-3-methyl-6-(4-morpholinophenyl)-1,2,3,4-tetrahydroisoquinolin-1-yl)phenyl)acrylic acid]	7.12	2.1	7.35					
C[C@@H]1Cc2c(ccc3[nH]ncc23)[C@@H](c2c(F)cc(/C=C/C(=O)O)cc2F)N1CC(C)(C)F [Example 94, (E)-3-(3,5-difluoro-4-((6S,8R)-7-(2-fluoro-2-methylpropyl)-8-methyl-6,7,8,9-tetrahydro-3H-pyrazolo[4,3-f]isoquinolin-6-yl)phenyl)acrylic acid]	0.04	0.03	0.02					

Second part, led by results:

IC50 (estrogen receptor (ER)) [nM]	IC50 (MCF7 cells) [nM]	DC50 (ERα) [nM]	SMILES	AUC [1] [ng·h/mL]	CL/F [1] [mL/min/kg]	half-life [1] [h]	MRT [1] [h]	Cmax [1] [ng/mL]
0.33	0.01	0.1	C[C@@H]1Cc2cc(-c3cnn(C)c3)ccc2[C@@H](c2c(F)cc(/C=C/C(=O)O)cc2F)N1CC(C)(C)F [Example 57, (E)-3-(3,5-difluoro-4-((1S,3R)-2-(2-fluoro-2-methylpropyl)-3-methyl-6-(1-methyl-1H-pyrazol-4-yl)-1,2,3,4-tetrahydroisoquinolin-1-yl)phenyl)acrylic acid]	15100	55.2	2.78	3.23	5070
0.21	0.08	0.31	CC1Cc2c(oc3ccc(-c4cnn(C)c4)cc23)C(c2c(F)cc(/C=C/C(=O)O)cc2F)N1CC(C)(C)F [Example 89, (E)-3-(3,5-difluoro-4-((1R,3R/1S,3S)-2-(2-fluoro-2-methylpropyl)-3-methyl-6-(1-methyl-1H-pyrazol-4-yl)-1,2,3,4-tetrahydrobenzofuro[2,3-c]pyridin-1-yl)phenyl)acrylic acid]	7710	108	3.97	5.69	1270
0.29	0.06	0.64	C[C@@H]1Cc2cc(-c3cnn(C(F)F)c3)ccc2[C@@H](c2c(F)cc(/C=C/C(=O)O)cc2F)N1CC(C)(C)F [Example 14, (E)-3-(4-((1S,3R)-6-(1-(difluoromethyl)-1H-pyrazol-4-yl)-2-(2-fluoro-2-methylpropyl)-3-methyl-1,2,3,4-tetrahydroisoquinolin-1-yl)-3,5-difluorophenyl)acrylic acid]	32700	25.5	4.74	5.93	6750
0.87	0.08	2.12	CC1Cc2c(ccc(-c3cnn(C)c3)c2F)C(c2c(F)cc(/C=C/C(=O)O)cc2F)N1CC(C)(C)F [Example 45, (E)-3-(3,5-difluoro-4-((1S,3R/1R,3S)-5-fluoro-2-(2-fluoro-2-methylpropyl)-3-methyl-6-(1-methyl-1H-pyrazol-4-yl)-1,2,3,4-tetrahydroisoquinolin-1-yl)phenyl)acrylic acid]					
